Among the data in PubChem BioAssay AID256 (DTP/NCI, 2004) are T/C values, retold here.

Values joined by “and” are separate entries in the source; they are usually repeats but may differ in a detail not shown here. Equal entries are not always repeated. Inconclusive results and toxic doses are left out.

For the assay, the system named is CD2F1 mice, L1210 leukemia ip, survival T/C. The assay can be described thus: NCI In Vivo Anticancer Drug Screen. Data for tumor model L1210 Leukemia (intraperitoneal) in CD2F1 (CDF1) mice. The settings on record: endpoint: mean survival time, higher = longer survival. The essentials:
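Transplantable tumor in mice; compound-treated vs vehicle-treated groups. Read-out = treated/control ratio of the measured endpoint.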

Setting [1] is: dose: 100.0 mg/kg/injection, schedule: Q04DX003 (ip), vehicle: saline with Tween-80.
The mark [2] stands for this setting: dose: 200.0 mg/kg/injection, schedule: Q04DX003 (ip), vehicle: saline with Tween-80.
[3] abbreviates: dose: 400.0 mg/kg/injection, schedule: Q04DX003 (ip), vehicle: saline with Tween-80.
The mark [4] stands for this setting: dose: 100.0 mg/kg/injection, schedule: Q04DX003 (ip), vehicle: saline.
The mark [5] stands for this setting: dose: 100.0 mg/kg/injection, schedule: Q04DX002 (ip), vehicle: saline with Tween-80.

For the molecule `CCCCCCCC1SC(=S)NC1=O` (stereo not given), the T/C is, setting by setting: (dose: 12.5 mg/kg/injection, schedule: Q01DX009 (ip), vehicle: other) 95 % of control; (dose: 25.0 mg/kg/injection, schedule: Q01DX009 (ip), vehicle: other) 89 % of control; (dose: 50.0 mg/kg/injection, schedule: Q01DX009 (ip), vehicle: other) 100 % of control; (dose: 100.0 mg/kg/injection, schedule: Q01DX009 (ip), vehicle: other) 91 % of control.

For `O=C(CC(O)(C(F)(F)F)C(F)(F)F)c1cccc(C(F)(F)F)c1`, the T/C is 90 % of control (dose: 100.0 mg/kg/injection, schedule: Q01DX001 (ip), vehicle: saline with Tween-80); 108 % of control (dose: 200.0 mg/kg/injection, schedule: Q01DX001 (ip), vehicle: saline with Tween-80); 103 % of control (dose: 400.0 mg/kg/injection, schedule: Q01DX001 (ip), vehicle: saline with Tween-80).

Take `O=C1CCCCCCCCCCC1Sc1ccccc1` (stereo not given): the T/C reads like this: under setting [1], 91 % of control; under setting [2], 100 % of control; under setting [3], 91 % of control.

In the case of `COC1OC(CO)C(O)C(O)C1O` (stereo not given), the T/C runs as follows: (dose: 100.0 mg/kg/injection, schedule: Q01DX001 (ip), vehicle: saline) 101 % of control and 105 % of control; under setting [4], 97 % of control; (dose: 200.0 mg/kg/injection, schedule: Q01DX001 (ip), vehicle: saline) 108 % of control and 105 % of control; (dose: 200.0 mg/kg/injection, schedule: Q04DX003 (ip), vehicle: saline) 102 % of control; (dose: 400.0 mg/kg/injection, schedule: Q01DX001 (ip), vehicle: saline) 101 % of control and 105 % of control; (dose: 400.0 mg/kg/injection, schedule: Q04DX003 (ip), vehicle: saline) 97 % of control.

Consider `NC(=Nc1ccccc1)Nc1ccccc1`, for which the T/C was 96 % of control (dose: 6.25 mg/kg/injection, schedule: Q04DX002 (ip), vehicle: Klucel (hydroxypropylcellulose) (HPC)); 86 % of control (dose: 12.5 mg/kg/injection, schedule: Q04DX002 (ip), vehicle: Klucel (hydroxypropylcellulose) (HPC)); 92 % of control (dose: 25.0 mg/kg/injection, schedule: Q04DX002 (ip), vehicle: Klucel (hydroxypropylcellulose) (HPC)); 101 % of control (dose: 50.0 mg/kg/injection, schedule: Q01DX009 (ip), vehicle: saline with Tween-80).

Regarding `NC(N)=NC(N)=Nc1ccc(C(=O)O)c(O)c1`, the T/C by setting is: (dose: 100.0 mg/kg/injection, schedule: Q01DX009 (ip), vehicle: saline) 106 % of control; (dose: 200.0 mg/kg/injection, schedule: Q01DX009 (ip), vehicle: saline) 95 % of control; (dose: 400.0 mg/kg/injection, schedule: Q01DX009 (ip), vehicle: saline) 95 % of control.

As for `C(=N\Nc1nc2ccccc2s1)/c1ccnc2ccccc12`, the T/C is, setting by setting: (dose: 100.0 mg/kg/injection, schedule: Q04DX003 (ip), vehicle: Klucel (hydroxypropylcellulose) (HPC)) 94 % of control; (dose: 200.0 mg/kg/injection, schedule: Q04DX003 (ip), vehicle: Klucel (hydroxypropylcellulose) (HPC)) 92 % of control; (dose: 400.0 mg/kg/injection, schedule: Q04DX003 (ip), vehicle: Klucel (hydroxypropylcellulose) (HPC)) 94 % of control.

As for `Cc1c(Cl)ccc(OCC2=NCCN2)c1C`, the T/C by setting is: (dose: 25.0 mg/kg/injection, schedule: Q04DX002 (ip), vehicle: saline with Tween-80) 109 % of control; (dose: 50.0 mg/kg/injection, schedule: Q04DX002 (ip), vehicle: saline with Tween-80) 97 % of control; under setting [5], 100 % of control and 102 % of control.

Take `CN(C)Cc1cc(Cl)cc(CN(C)C)c1O`: the T/C is 105 % of control (dose: 25.0 mg/kg/injection, schedule: Q04DX003 (ip), vehicle: saline with Tween-80); 97 % of control (dose: 50.0 mg/kg/injection, schedule: Q04DX003 (ip), vehicle: saline with Tween-80); 101 % of control under setting [1].

Consider `COC1OC(COC(C)=O)C(OC(C)=O)C(NC(=O)N(CCCl)N=O)C1OC(C)=O` (stereo not given), for which the T/C (dose: 13.0 mg/kg/injection, schedule: Q01DX001 (ip), vehicle: saline with Tween-80) was 240 % of control; the T/C (dose: 20.0 mg/kg/injection, schedule: Q01DX001 (ip), vehicle: saline with Tween-80) is 469 % of control; the T/C (dose: 30.0 mg/kg/injection, schedule: Q01DX001 (ip), vehicle: saline with Tween-80) was 535 % of control; the T/C (dose: 44.0 mg/kg/injection, schedule: Q01DX001 (ip), vehicle: saline with Tween-80) was 459 % of control; the T/C (dose: 67.0 mg/kg/injection, schedule: Q01DX001 (ip), vehicle: saline with Tween-80) is 245 % of control.

Consider `NNc1nnc(Cl)cc1N`, for which the T/C under setting [1] was 109 % of control.

Regarding `CC(CSc1ccccc1)NCCO` (stereo not given), the T/C (dose: 25.0 mg/kg/injection, schedule: Q04DX003 (ip), vehicle: saline) is 95 % of control; the T/C (dose: 50.0 mg/kg/injection, schedule: Q04DX003 (ip), vehicle: saline) was 94 % of control; the T/C under setting [4] was 100 % of control.

With `Cn1cnc2c(SCc3ccccc3)ncnc21`, the T/C under setting [1] is 104 % of control; the T/C (dose: 132.0 mg/kg/injection, schedule: Q04DX003 (ip), vehicle: saline with Tween-80) is 118 % of control; the T/C under setting [2] was 102 % of control; the T/C (dose: 300.0 mg/kg/injection, schedule: Q04DX003 (ip), vehicle: saline with Tween-80) is 119 % of control.

Turning to `O=C(O)c1cscc1-c1ccccc1`, the T/C under setting [1] is 104 % of control, the T/C under setting [2] is 104 % of control and the T/C under setting [3] was 102 % of control.

On to `CCc1cccc(OCC(C)=O)c1`, for which the T/C reads like this: (dose: 75.0 mg/kg/injection, schedule: Q01DX001 (ip), vehicle: saline with Tween-80) 97 % of control; (dose: 150.0 mg/kg/injection, schedule: Q01DX001 (ip), vehicle: saline with Tween-80) 101 % of control; (dose: 300.0 mg/kg/injection, schedule: Q01DX001 (ip), vehicle: saline with Tween-80) 100 % of control.

With `COc1cc2c(cc1OC)C(CCNC(=O)CCCO)NCC2` (stereo not given), the T/C runs as follows: (dose: 100.0 mg/kg/injection, schedule: Q01DX001 (ip), vehicle: saline sonified) 97 % of control; (dose: 100.0 mg/kg/injection, schedule: Q01DX009 (ip), vehicle: saline sonified) 98 % of control; (dose: 200.0 mg/kg/injection, schedule: Q01DX001 (ip), vehicle: saline sonified) 100 % of control; (dose: 200.0 mg/kg/injection, schedule: Q01DX009 (ip), vehicle: saline sonified) 95 % of control; (dose: 400.0 mg/kg/injection, schedule: Q01DX001 (ip), vehicle: saline sonified) 100 % of control; (dose: 400.0 mg/kg/injection, schedule: Q01DX009 (ip), vehicle: saline sonified) 91 % of control.

Turning to `O=C(COc1ccc(F)cc1)OCCO`, the T/C by setting is: under setting [5], 105 % of control; (dose: 200.0 mg/kg/injection, schedule: Q04DX002 (ip), vehicle: saline with Tween-80) 101 % of control; (dose: 400.0 mg/kg/injection, schedule: Q04DX002 (ip), vehicle: saline with Tween-80) 105 % of control.
